Source: patent US9266830B2, “Pesticidal arylpyrrolidines” (Bayer Intellectual Property GmbH, priority 2007, dated 2016)

Tested on: Boophilus microplus
Experiment: Boophilus microplus test (injection)
Assay type: in vivo
Conditions: application rate 20 μg/animal, adult engorged females, after 7 days
Procedure: Solvent: dimethyl sulfoxide
To produce a suitable preparation of active compound, 10 mg of active compound are dissolved in 0.5 ml solvent, and the concentrate is diluted with solvent to the desired concentration. Five adult engorged female ticks (Boophilus microplus) are injected with compound solution into the abdomen. Ticks are transferred into replica plates and incubated in a climate chamber for a period of time. Egg deposition of fertile eggs is monitored. After 7 days mortality in % is determined 100% means that all eggs are infertile; 0% means that all eggs are fertile.

Compound | activity (100% means that all eggs are infertile)
O=C(NCc1ccc(N2CCC(c3cc(Cl)cc(Cl)c3)(C(F)(F)F)C2)cc1C(F)(F)F)NC1CC1 (stereo not drawn) [1-224] | 100%
O=C(NCc1ccc(N2CCC(c3cc(Cl)cc(Cl)c3)(C(F)(F)F)C2)cc1C(F)(F)F)NC1CCC1 (stereo not drawn) [1-227] | 100%
O=C(NCc1ccc(N2CCC(c3cc(Cl)cc(Cl)c3)(C(F)(F)F)C2)cc1C(F)(F)F)NCC1CC1 (stereo not drawn) [1-232] | 100%
O=C(NCc1ccccn1)NCc1ccc(N2CCC(c3cc(Cl)cc(Cl)c3)(C(F)(F)F)C2)cc1C(F)(F)F (stereo not drawn) [1-254] | 100%
CNC(=O)N(C)Cc1ccc(N2CCC(c3cc(Cl)cc(Cl)c3)(C(F)(F)F)C2)cc1C(F)(F)F (stereo not drawn) [1-258] | 100%
CN(Cc1ccc(N2CCC(c3cc(Cl)cc(Cl)c3)(C(F)(F)F)C2)cc1C(F)(F)F)C(=O)NC1CC1 (stereo not drawn) [1-260] | 100%
CC(C)(C)OC(=O)NCc1ccc(N2CCC(c3cc(Cl)cc(Cl)c3)(C(F)(F)F)C2)cc1C(F)(F)F (stereo not drawn) [1-270] | 100%
CCC(=O)NCc1ccc(N2CCC(c3cc(Cl)cc(Cl)c3)(C(F)(F)F)C2)cc1Br (stereo not drawn) [1-285] | 100%
NCc1ccc(N2CCC(c3cc(C(F)(F)F)cc(C(F)(F)F)c3)(C(F)(F)F)C2)cc1C(F)(F)F (stereo not drawn) [1-295] | 100%
O=C(CC(F)(F)F)NCc1ccc(N2CCC(c3cc(C(F)(F)F)cc(C(F)(F)F)c3)(C(F)(F)F)C2)cc1C(F)(F)F (stereo not drawn) [1-296] | 100%
COC(=O)NCc1ccc(N2CCC(c3cc(C(F)(F)F)cc(C(F)(F)F)c3)(C(F)(F)F)C2)cc1C(F)(F)F (stereo not drawn) [1-298] | 100%
CCOC(=O)NCc1ccc(N2CCC(c3cc(C(F)(F)F)cc(C(F)(F)F)c3)(C(F)(F)F)C2)cc1C(F)(F)F (stereo not drawn) [1-299] | 100%
CC(C)(C)OC(=O)NCc1ccc(N2CCC(c3cc(C(F)(F)F)cc(C(F)(F)F)c3)(C(F)(F)F)C2)cc1C(F)(F)F (stereo not drawn) [1-300] | 100%
CCCNC(=O)NCc1ccc(N2CCC(c3cc(C(F)(F)F)cc(C(F)(F)F)c3)(C(F)(F)F)C2)cc1C(F)(F)F (stereo not drawn) [1-303] | 100%
CC(C)NC(=O)NCc1ccc(N2CCC(c3cc(C(F)(F)F)cc(C(F)(F)F)c3)(C(F)(F)F)C2)cc1C(F)(F)F (stereo not drawn) [1-304] | 100%
O=C(NCc1ccc(N2CCC(c3cc(C(F)(F)F)cc(C(F)(F)F)c3)(C(F)(F)F)C2)cc1Cl)C1CC1 (stereo not drawn) [1-308] | 100%
CCC(=O)NCc1ccc(N2CCC(c3cc(C(F)(F)F)cc(C(F)(F)F)c3)(C(F)(F)F)C2)cc1Br (stereo not drawn) [1-312] | 100%
CC(=O)NCc1ccc(N2CCC(c3cc(C(F)(F)F)cc(C(F)(F)F)c3)(C(F)(F)F)C2)cc1[N+](=O)[O-] (stereo not drawn) [1-317] | 100%
O=C(NCc1ccc(N2CCC(c3cc(C(F)(F)F)cc(C(F)(F)F)c3)(C(F)(F)F)C2)cc1[N+](=O)[O-])C1CC1 (stereo not drawn) [1-319] | 100%
O=C(CC(F)(F)F)NCc1ccc(N2CCC(c3cc(Cl)c(Cl)c(Cl)c3)(C(F)(F)F)C2)cc1C(F)(F)F (stereo not drawn) [1-327] | 100%

Compound | activity (100% means that all eggs are infertile)
CC(C)C(=O)NCc1ccc(N2CCC(c3cc(Cl)c(Cl)c(Cl)c3)(C(F)(F)F)C2)cc1C(F)(F)F (stereo not drawn) [1-329] | 100%
CCNC(=O)NCc1ccc(N2CCC(c3cc(Cl)c(Cl)c(Cl)c3)(C(F)(F)F)C2)cc1C(F)(F)F (stereo not drawn) [1-330] | 100%
CCC(=O)NCc1ccc(N2CCC(c3cc(Cl)c(Cl)c(Cl)c3)(C(F)(F)F)C2)cc1Cl (stereo not drawn) [1-338] | 100%
O=C(NCc1ccc(N2CCC(c3cc(Cl)c(Cl)c(Cl)c3)(C(F)(F)F)C2)cc1Cl)C1CC1 (stereo not drawn) [1-339] | 100%
CCNC(=O)NCc1ccc(N2CCC(c3cc(Cl)c(Cl)c(Cl)c3)(C(F)(F)F)C2)cc1Cl (stereo not drawn) [1-341] | 100%
CCC(=O)NCc1ccc(N2CCC(c3cc(Cl)c(Cl)c(Cl)c3)(C(F)(F)F)C2)cc1Br (stereo not drawn) [1-345] | 100%
O=C(NCc1ccc(N2CCC(c3cc(Cl)c(Cl)c(Cl)c3)(C(F)(F)F)C2)cc1Br)C1CC1 (stereo not drawn) [1-346] | 100%
O=C(NCc1ccc(N2CCC(c3cc(Cl)cc(C(F)(F)F)c3)(C(F)(F)F)C2)cc1C(F)(F)F)C1CC1 (stereo not drawn) [1-357] | 100%
O=C(CC(F)(F)F)NCc1cnc(N2CCC(c3cc(Cl)c(Cl)c(Cl)c3)(C(F)(F)F)C2)cc1C(F)(F)F (stereo not drawn) [1-380] | 100%
CCNC(=O)NCc1cnc(N2CCC(c3cc(Cl)c(Cl)c(Cl)c3)(C(F)(F)F)C2)cc1C(F)(F)F (stereo not drawn) [1-381] | 100%
O=C(CC(F)(F)F)NCc1cnc(N2CCC(c3cc(C(F)(F)F)cc(C(F)(F)F)c3)(C(F)(F)F)C2)cc1C(F)(F)F (stereo not drawn) [1-386] | 100%
CC(NC(=O)NCc1ccc(N2CCC(c3cc(Cl)cc(Cl)c3)(C(F)(F)F)C2)cc1Cl)C(F)(F)F (stereo not drawn) [1-442] | 100%
CC(NC(=O)NCc1ccc(N2CCC(c3cc(Cl)cc(Cl)c3)(C(F)(F)F)C2)cc1Cl)c1nccs1 (stereo not drawn) [1-446] | 100%
CC(Br)C(=O)NCc1ccc(N2CCC(c3cc(Cl)cc(Cl)c3)(C(F)(F)F)C2)cc1Cl (stereo not drawn) [1-458] | 100%
FC(F)(F)C1(c2cc(Cl)cc(Cl)c2)CCN(c2ccc(CNC(=S)NC3CC3)c(Cl)c2)C1 (stereo not drawn) [1-468] | 100%
C[S+]([O-])CC(=O)NCc1ccc(N2CCC(c3cc(Cl)cc(Cl)c3)(C(F)(F)F)C2)cc1C(F)(F)F (stereo not drawn) [1-494] | 100%
CS(=O)(=O)CC(=O)NCc1ccc(N2CCC(c3cc(Cl)cc(Cl)c3)(C(F)(F)F)C2)cc1C(F)(F)F (stereo not drawn) [1-495] | 100%
CC[S+]([O-])CC(=O)NCc1ccc(N2CCC(c3cc(Cl)cc(Cl)c3)(C(F)(F)F)C2)cc1C(F)(F)F (stereo not drawn) [1-500] | 100%
CCS(=O)(=O)CC(=O)NCc1ccc(N2CCC(c3cc(Cl)cc(Cl)c3)(C(F)(F)F)C2)cc1C(F)(F)F (stereo not drawn) [1-501] | 100%
C=CCSCC(=O)NCc1ccc(N2CCC(c3cc(Cl)cc(Cl)c3)(C(F)(F)F)C2)cc1C(F)(F)F (stereo not drawn) [1-503] | 100%

Compound | activity (100% means that all eggs are infertile)
C=CC[S+]([O-])CC(=O)NCc1ccc(N2CCC(c3cc(Cl)cc(Cl)c3)(C(F)(F)F)C2)cc1C(F)(F)F (stereo not drawn) [1-504] | 100%
C=CCS(=O)(=O)CC(=O)NCc1ccc(N2CCC(c3cc(Cl)cc(Cl)c3)(C(F)(F)F)C2)cc1C(F)(F)F (stereo not drawn) [1-505] | 100%
CSCC(=O)NCc1ccc(N2CCC(c3cc(Cl)c(Cl)c(Cl)c3)(C(F)(F)F)C2)cc1C(F)(F)F (stereo not drawn) [1-728] | 100%
C[S+]([O-])CC(=O)NCc1ccc(N2CCC(c3cc(Cl)c(Cl)c(Cl)c3)(C(F)(F)F)C2)cc1C(F)(F)F (stereo not drawn) [1-729] | 100%
CS(=O)(=O)CC(=O)NCc1ccc(N2CCC(c3cc(Cl)c(Cl)c(Cl)c3)(C(F)(F)F)C2)cc1C(F)(F)F (stereo not drawn) [1-730] | 100%
C=CCSCC(=O)NCc1ccc(N2CCC(c3cc(Cl)c(Cl)c(Cl)c3)(C(F)(F)F)C2)cc1C(F)(F)F (stereo not drawn) [1-732] | 100%
C=CC[S+]([O-])CC(=O)NCc1ccc(N2CCC(c3cc(Cl)c(Cl)c(Cl)c3)(C(F)(F)F)C2)cc1C(F)(F)F (stereo not drawn) [1-733] | 100%
CC(=O)CC(=O)NCc1ccc(N2CCC(c3cc(C(F)(F)F)cc(C(F)(F)F)c3)(C(F)(F)F)C2)cc1C(F)(F)F (stereo not drawn) [1-963] | 100%
CSCC(=O)NCc1ccc(N2CCC(c3cc(C(F)(F)F)cc(C(F)(F)F)c3)(C(F)(F)F)C2)cc1C(F)(F)F (stereo not drawn) [1-966] | 100%
C[S+]([O-])CC(=O)NCc1ccc(N2CCC(c3cc(C(F)(F)F)cc(C(F)(F)F)c3)(C(F)(F)F)C2)cc1C(F)(F)F (stereo not drawn) [1-967] | 100%
CS(=O)(=O)CC(=O)NCc1ccc(N2CCC(c3cc(C(F)(F)F)cc(C(F)(F)F)c3)(C(F)(F)F)C2)cc1C(F)(F)F (stereo not drawn) [1-968] | 100%
C=CCSCC(=O)NCc1ccc(N2CCC(c3cc(C(F)(F)F)cc(C(F)(F)F)c3)(C(F)(F)F)C2)cc1C(F)(F)F (stereo not drawn) [1-969] | 100%
C=CC[S+]([O-])CC(=O)NCc1ccc(N2CCC(c3cc(C(F)(F)F)cc(C(F)(F)F)c3)(C(F)(F)F)C2)cc1C(F)(F)F (stereo not drawn) [1-970] | 100%
C=CCS(=O)(=O)CC(=O)NCc1ccc(N2CCC(c3cc(C(F)(F)F)cc(C(F)(F)F)c3)(C(F)(F)F)C2)cc1C(F)(F)F (stereo not drawn) [1-971] | 100%
O=C(NCC(F)(F)F)c1cnc(N2CCC(c3cc(C(F)(F)F)cc(C(F)(F)F)c3)(C(F)(F)F)C2)nc1C(F)(F)F (stereo not drawn) [2-34] | 100%
O=C(NCc1ccccn1)c1cnc(N2CCC(c3cc(C(F)(F)F)cc(C(F)(F)F)c3)(C(F)(F)F)C2)nc1C(F)(F)F (stereo not drawn) [2-35] | 100%
CC(=O)NCc1cnc(N2CCC(c3cc(Cl)c(Cl)c(Cl)c3)(C(F)(F)F)C2)nc1C(F)(F)F (stereo not drawn) [3-141] | 100%
O=C(NCc1cnc(N2CCC(c3cc(Cl)c(Cl)c(Cl)c3)(C(F)(F)F)C2)nc1C(F)(F)F)C1CC1 (stereo not drawn) [3-143] | 100%
O=C(CC(F)(F)F)NCc1cnc(N2CCC(c3cc(Cl)c(Cl)c(Cl)c3)(C(F)(F)F)C2)nc1C(F)(F)F (stereo not drawn) [3-144] | 100%
CCNC(=O)NCc1cnc(N2CCC(c3cc(Cl)c(Cl)c(Cl)c3)(C(F)(F)F)C2)nc1C(F)(F)F (stereo not drawn) [3-145] | 100%
